Reference: patent US20240158446A1, “CYCLIC COMPOUND HAVING SELECTIVE INHIBITORY ACTION ON KRAS OVER HRAS AND NRAS” (CHUGAI SEIYAKU KABUSHIKI KAISHA, priority 2021, published 2024)
Read-outs that look alike come from different tables or passages of the source.

Assays:
[1] = target: GDP-bound KRAS wild-type protein (Homo sapiens, UniProt P01116); assay: Binding to KRAS by surface plasmon resonance (SPR), Single Cycle Kinetics; settings: SPR, Single Cycle Kinetics, GDP-bound KRAS wild-type protein, read-out: KRAS KD
GDP-bound KRAS wild-type protein, sequence (P01116 whole entry): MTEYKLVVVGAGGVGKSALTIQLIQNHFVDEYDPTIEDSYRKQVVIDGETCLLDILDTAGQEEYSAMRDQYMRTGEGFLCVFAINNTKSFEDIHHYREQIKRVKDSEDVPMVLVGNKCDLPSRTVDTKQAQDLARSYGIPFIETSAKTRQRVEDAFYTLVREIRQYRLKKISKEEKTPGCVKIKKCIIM

[2] = target: GDP-bound NRAS wild-type protein (Homo sapiens, UniProt P01111); assay: Binding to NRAS by surface plasmon resonance (SPR), Single Cycle Kinetics; settings: SPR; for NRAS/KRAS (ratio of KD value for NRAS to KD value for KRAS): GDP-bound NRAS wild-type protein vs GDP-bound KRAS wild-type protein; for NRAS/KRAS (KD ratio): ratio of KD for GDP-bound NRAS wild-type protein to KD for KRAS
GDP-bound NRAS wild-type protein, sequence (P01111 whole entry): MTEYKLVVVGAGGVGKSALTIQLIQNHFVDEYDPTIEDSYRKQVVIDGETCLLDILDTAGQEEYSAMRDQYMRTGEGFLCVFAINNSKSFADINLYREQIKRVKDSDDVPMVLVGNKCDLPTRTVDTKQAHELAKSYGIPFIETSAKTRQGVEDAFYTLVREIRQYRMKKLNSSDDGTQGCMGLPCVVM

[3] = target: GDP-bound HRAS wild-type protein (Homo sapiens, UniProt P01112); assay: Binding to HRAS by surface plasmon resonance (SPR), Single Cycle Kinetics; settings: SPR; for HRAS/KRAS (ratio of KD value for HRAS to KD value for KRAS): GDP-bound HRAS wild-type protein vs GDP-bound KRAS wild-type protein; for HRAS/KRAS (KD ratio): ratio of KD for GDP-bound HRAS wild-type protein to KD for KRAS
GDP-bound HRAS wild-type protein, sequence (P01112 whole entry): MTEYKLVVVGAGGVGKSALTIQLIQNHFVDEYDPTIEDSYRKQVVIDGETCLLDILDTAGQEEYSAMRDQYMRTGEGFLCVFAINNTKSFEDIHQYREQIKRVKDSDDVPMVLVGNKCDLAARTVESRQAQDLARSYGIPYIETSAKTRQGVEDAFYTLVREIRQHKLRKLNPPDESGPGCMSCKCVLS

Compound	Kd ([1]; 1:1 binding model) [nM]	NRAS/KRAS (ratio of KD value for NRAS to KD value for KRAS) ([2]; KD ratio class)	HRAS/KRAS (ratio of KD value for HRAS to KD value for KRAS) ([3]; KD ratio class)	Kd [1] [nM]	NRAS/KRAS (KD ratio) [2]	HRAS/KRAS (KD ratio) [3]	NRAS/KRAS (ratio of KD value for NRAS to KD value for KRAS) [2]	HRAS/KRAS (ratio of KD value for HRAS to KD value for KRAS) [3]
CCO[C@@H]1C[C@H]2C(=O)NC3(CC(C)(C)C3)C(=O)N(C)[C@@H](C3CCCC3)C(=O)N3CCC[C@@H]3CC(=O)N(C)[C@@H](CC)C(=O)N[C@@H]([C@@H](C)CC)C(=O)N(C)CC(=O)N(C)[C@H]3C/C=C\CCN(C3=O)[C@@H](Cc3ccc(C(F)(F)F)cc3)C(=O)N(C)CC(=O)N[C@@H](CCc3cc(F)c(C(F)(F)F)c(F)c3)C(=O)N2C1 [PP1606]	0.37	B (a compound having 3 or more and less than 10 is denoted as B)	B (a compound having 3 or more and less than 10 is denoted as B)	–	–	–	–	–
CCO[C@@H]1C[C@H]2C(=O)NC3(CC(C)(C)C3)C(=O)N(C)[C@@H](C3CCCC3)C(=O)N(C)[C@H](C(=O)N(C)C)CC(=O)N(C)[C@@H](CC(C)C)C(=O)N[C@@H]([C@@H](C)CC)C(=O)N(C)CC(=O)N(C)[C@H]3C/C=C\CCN(C3=O)[C@@H](Cc3ccc(C(F)(F)F)cc3)C(=O)N(C)CC(=O)N[C@@H](CCc3cc(F)c(C(F)(F)F)c(F)c3)C(=O)N2C1 [PP1650, (2S,8S,12R,14S,20S,23S,27S,30S,36S,38Z)-20-cyclopentyl-8-[2-[3,5-difluoro-4-(trifluoromethyl)phenyl]ethyl]-12-ethoxy-27-isobutyl-N,N,3′,3′,4,19,22,26,32,35-decamethyl-30-[(1S)-1-methylpropyl]-3,6,9,15,18,21,25,28,31,34,42-undecaoxo-2-[[4-(trifluoromethyl)phenyl]methyl]spiro[1,4,7,10,16,19,22,26,29,32,35-undecazatricyclo[34.5.1.0^10,14]dotetracont-38-ene-17,1′-cyclobutane]-23-carboxamide]	–	–	–	0.057	A (a compound having 10 or more and less than 20 is denoted as A)	A (a compound having 10 or more and less than 20 is denoted as A)	–	–
CCO[C@@H]1C[C@H]2C(=O)NC3(CC(C)(C)C3)C(=O)N(C)[C@@H](C3CCCC3)C(=O)N(C)[C@H](C(=O)N(C)CC)CC(=O)N(C)[C@H]3CCCC/C=C/c4ccc(cc4)C[C@@H](C(=O)N(C)CC(=O)N[C@@H](CCc4ccc(C(F)(F)F)c(OC)c4)C(=O)N2C1)N1CC/C=C\C[C@@H](C1=O)N(C)C(=O)CN(C)C(=O)[C@H]([C@@H](C)CC)NC3=O [PP1830, (1S,7S,11R,13S,19S,22S,26S,29S,35S,37Z,47E)-19-cyclopentyl-11-ethoxy-N-ethyl-7-[2-[3-methoxy-4-(trifluoromethyl)phenyl]ethyl]-N,3,3′,3′,18,21,25,31,34-nonamethyl-29-[(1S)-1-methylpropyl]-2,5,8,14,17,20,24,27,30,33,55-undecaoxo-spiro[3,6,9,15,18,21,25,28,31,34,41-undecazapentacyclo[24.15.11.2^43,46.1^35,41.0^9,13]pentapentaconta-37,43(54),44,46(53),47-pentaene-16,1′-cyclobutane]-22-carboxamide]	–	–	–	0.054	A (a compound having 10 or more and less than 20 is denoted as A)	B (a compound having 3 or more and less than 10 is denoted as B)	–	–
CCO[C@@H]1C[C@H]2C(=O)NC3(CC(C)(C)C3)C(=O)N(C)[C@@H](C3CCCC3)C(=O)N(C)[C@H](C(=O)N(C)C)CC(=O)N(C)[C@H]3CCCC/C=C/c4ccc(cc4)C[C@@H](C(=O)N(C)CC(=O)N[C@@H](CCc4cc(F)c(C(F)(F)F)c(F)c4)C(=O)N2C1)N1CC/C=C\C[C@@H](C1=O)N(C)C(=O)CN(C)C(=O)[C@H]([C@@H](C)CC)NC3=O [PP1831]	–	–	–	0.025	A (a compound having 10 or more and less than 20 is denoted as A)	A (a compound having 10 or more and less than 20 is denoted as A)	–	–
CCO[C@@H]1C[C@H]2C(=O)NC3(CC(C)(C)C3)C(=O)N(C)[C@@H](C3CCCC3)C(=O)N(C)[C@H](C(=O)N(C)C)CC(=O)N(C)[C@H]3CCCC/C=C/c4ccc(cc4)C[C@@H](C(=O)N(C)CC(=O)N[C@@H](CCc4ccc(C(F)(F)F)c(OC)c4)C(=O)N2C1)N1CC/C=C\C[C@@H](C1=O)N(C)C(=O)CN(C)C(=O)[C@H]([C@@H](C)CC)NC3=O [PP1832]	–	–	–	0.04	B (a compound having 3 or more and less than 10 is denoted as B)	B (a compound having 3 or more and less than 10 is denoted as B)	–	–
CCO[C@@H]1C[C@H]2C(=O)NC3(CCC3)C(=O)N(C)[C@@H](C3CCCC3)C(=O)N(C)[C@H](C(=O)N(C)CC)CC(=O)N(C)[C@H]3CCC/C=C/c4ccc(cc4)C[C@@H](C(=O)N(C)CC(=O)N[C@@H](CCc4ccc(C(F)(F)F)c(OC)c4)C(=O)N2C1)N1CC/C=C\C[C@@H](C1=O)N(C)C(=O)CN(C)C(=O)[C@H]([C@@H](C)CC)NC3=O [PP1834]	–	–	–	0.065	A (a compound having 10 or more and less than 20 is denoted as A)	B (a compound having 3 or more and less than 10 is denoted as B)	–	–
CCO[C@@H]1C[C@H]2C(=O)NC3(CC(C)(C)C3)C(=O)N(C)[C@@H](C3CCCC3)C(=O)N(C)[C@H](C(=O)N(C)CC)CC(=O)N(C)[C@H]3CCC/C=C/c4ccc(cc4)C[C@@H](C(=O)N(C)CC(=O)N[C@@H](CCc4cc(F)c(C(F)(F)F)c(F)c4)C(=O)N2C1)N1CC/C=C\C[C@@H](C1=O)N(C)C(=O)CN(C)C(=O)[C@H]([C@@H](C)CC)NC3=O [PP1835]	–	–	–	0.051	A (a compound having 10 or more and less than 20 is denoted as A)	B (a compound having 3 or more and less than 10 is denoted as B)	–	–
CCO[C@@H]1C[C@H]2C(=O)NC3(CC(C)(C)C3)C(=O)N(C)[C@@H](C3CCCC3)C(=O)N(C)[C@H](C(=O)N(C)CC)CC(=O)N(C)[C@@H](C(C)C)C(=O)N[C@@H]([C@@H](C)CC)C(=O)N(C)CC(=O)N(C)[C@H]3C/C=C\CCN(C3=O)[C@@H](Cc3ccc(C(F)(F)F)cc3)C(=O)N(C)CC(=O)N[C@@H](CCc3cc(F)c(C(F)(F)F)c(F)c3)C(=O)N2C1 [PP2034]	–	–	–	0.19	–	–	A (a compound having 10 or more and less than 20 is denoted as A)	A (a compound having 10 or more and less than 20 is denoted as A)
CCO[C@@H]1C[C@H]2C(=O)NC3(CC(C)(C)C3)C(=O)N(C)[C@@H](C3CCCC3)C(=O)N(C)[C@H](C(=O)N(C)CC)CC(=O)N(C)[C@@H](C3CC3)C(=O)N[C@@H]([C@@H](C)CC)C(=O)N(C)CC(=O)N(C)[C@H]3C/C=C\CCN(C3=O)[C@@H](Cc3ccc(C(F)(F)F)cc3)C(=O)N(C)CC(=O)N[C@@H](CCc3cc(F)c(C(F)(F)F)c(F)c3)C(=O)N2C1 [PP2036]	–	–	–	0.089	–	–	A (a compound having 10 or more and less than 20 is denoted as A)	A (a compound having 10 or more and less than 20 is denoted as A)
CCO[C@@H]1C[C@H]2C(=O)NC3(CC(C)(C)C3)C(=O)N(C)[C@@H](C3CCCC3)C(=O)N(C)[C@H](C(=O)N(C)CC)CC(=O)N(C)[C@@H](C3CCC3)C(=O)N[C@@H]([C@@H](C)CC)C(=O)N(C)CC(=O)N(C)[C@H]3C/C=C\CCN(C3=O)[C@@H](Cc3ccc(C(F)(F)F)cc3)C(=O)N(C)CC(=O)N[C@@H](CCc3cc(F)c(C(F)(F)F)c(F)c3)C(=O)N2C1 [PP2038]	–	–	–	0.16	–	–	A (a compound having 10 or more and less than 20 is denoted as A)	A (a compound having 10 or more and less than 20 is denoted as A)
CCCN(C)C(=O)[C@@H]1CC(=O)N(C)[C@@H](CC(F)F)C(=O)N[C@@H]([C@@H](C)CC)C(=O)N(C)CC(=O)N(C)[C@H]2C/C=C\CCN(C2=O)[C@@H](Cc2ccc(C(F)(F)F)cc2)C(=O)N(C)CC(=O)N[C@@H](CCc2cc(F)c(C(F)(F)F)c(F)c2)C(=O)N2C[C@@H](C)C[C@H]2C(=O)NC2(CC(C)(C)C2)C(=O)N(C)[C@@H](C2CCCC2)C(=O)N1C [PP2040]	–	–	–	0.31	–	–	A (a compound having 10 or more and less than 20 is denoted as A)	A (a compound having 10 or more and less than 20 is denoted as A)
CCCN(C)C(=O)[C@@H]1CC(=O)N(C)[C@@H](COCC)C(=O)N[C@@H]([C@@H](C)CC)C(=O)N(C)CC(=O)N(C)[C@H]2C/C=C\CCN(C2=O)[C@@H](Cc2ccc(C(F)(F)F)cc2)C(=O)N(C)CC(=O)N[C@@H](CCc2cc(F)c(C(F)(F)F)c(F)c2)C(=O)N2C[C@@H](C)C[C@H]2C(=O)NC2(CC(C)(C)C2)C(=O)N(C)[C@@H](C2CCCC2)C(=O)N1C [PP2041]	–	–	–	0.19	–	–	A (a compound having 10 or more and less than 20 is denoted as A)	A (a compound having 10 or more and less than 20 is denoted as A)
CCOC[C@H]1C(=O)N[C@@H]([C@@H](C)CC)C(=O)N(C)CC(=O)N(C)[C@H]2C/C=C\CCN(C2=O)[C@@H](Cc2ccc(C(F)(F)F)cc2)C(=O)N(C)CC(=O)N[C@@H](CCc2cc(F)c(C(F)(F)F)c(F)c2)C(=O)N2C[C@@H](C)C[C@H]2C(=O)NC2(CC(C)(C)C2)C(=O)N(C)[C@@H](C2CCCC2)C(=O)N(C)[C@H](C(=O)N(C)CC)CC(=O)N1C [PP2042]	–	–	–	0.14	–	–	A (a compound having 10 or more and less than 20 is denoted as A)	A (a compound having 10 or more and less than 20 is denoted as A)
